Laboratory results reported in PMC11219860, “A chemogenetic approach for dopamine imaging with tunable sensitivity” (Nature Communications, 2024).

How the values were obtained:
Format in all cases: cell-based
hmDRD1 = hmDRD1 (Homo sapiens, UniProt P21728); test: NanoBit complementation assay of mini-Gs recruitment
Protocol: (§1) To measure the effect of DETQ on mini-G protein recruitment by different GPCRs we used a Nanoluciferase (NanoBit)-based complementation assay[26],[27]. For this HEK293T cells were seeded in six-well plates (Techno Plastic Products) at a density of 300,000 cells per well and co-transfected with plasmids encoding either hmDRD1, msDRD1, msDRD2, msDRD5, msADRA1a, msβ2AR or ms5HT6 carrying a C-terminally fused SmBiT, in combination with the corresponding mini-G protein probe[78] (mini-Gs: for DRD1, DRD5, β2AR, 5HT6R; mini-Gq: for ADRA1a; or mini-Gi: for DRD2), which were N-terminally fused to LgBiT, in a 1:1 DNA ratio using Effectene transfection reagent (Qiagen). 24 h after transfection cells were detached using Versene (ThermoFisher Scientific), washed, centrifuged (RT, 150 g, 3 min), and resuspended (0.5 × 10^6 cells ml^−1) in Fluorobrite DMEM (ThermoFisher Scientific) complemented with 30 mM HEPES (ThermoFisher Scientific). First, 95 µl of the cell suspension were added into each well of a white flat-bottom 96-well OptiPlate (PerkinElmer), then 25 µl of a 20-fold dilution of Nano-Glo reagent in LCS buffer (Promega) and last either 5 ul of pure Fluorobrite-DMEM or 5 ul of DETQ diluted in Fluorobrite DMEM (final concentration 100 nM for DRD1; 1 µM for all other receptors). The plate was incubated at 37 °C for 30 min, before the luminescence signal was measured at 37 °C using a Tecan Spark plate reader before and after the manual addition of 25 µl of either ligand solution (final concentrations ranging from 1 nM to 100 µM), pure Fluorobrite-DMEM or 25 µl of a DETQ solution (1 µM final concentration).
(§2) For in vitro luminescence assays, ligand traces were divided by buffer traces, the area under the curve for each trace was calculated using GraphPad Prism, values were normalized and fitted as dose response curve. The change in luminescence (∆L/L0) upon addition of different ligands was calculated as follows: (Lt – L0)/L0, with Lt being the Luminescence at ten timepoints t immediately after ligand application, and L0 being the luminescence of ten timepoints before ligand application. The statistical significance was determined using Welch’s ANOVA followed by Dunnett’s multiple comparison test (comparison of ligand or vehicle to ligand). For ex vivo imaging experiments, statistical analyses were performed in Prism (GraphPad) using independent samples t-test or nonparametric Mann-Whitney U-test when assumption of normality was violated (assessed using Schapiro-Wilk’s test). Curve fitting parameters were compared by extra sum-of-squares F test. For in vivo imaging experiments, statistical tests were paired and unpaired t-tests (two-tailed) and repeated-measures ANOVA for parametric data, while they were Wilcoxon rank sum tests or Mann-Whitney for non-parametric data. Sidak or Tukey post-hoc tests correcting for multiple comparisons were used in the case of significant interactions in ANOVA. All p-values are indicated in the Results section. […] No statistical methods were used to predetermine sample size. No data were excluded from the analyses. Group allocations used in this study were randomly assigned to animals and/or cultured cells. The Investigators were not blinded to allocation during experiments and outcome assessment.

msDRD5 = target: T1, msDRD5 (Mus musculus, UniProt Q8BLD9); test: as above
T1 construct: expressed in transfected cells; host or cells: HEK293T
T1 sequence (Q8BLD9 whole entry): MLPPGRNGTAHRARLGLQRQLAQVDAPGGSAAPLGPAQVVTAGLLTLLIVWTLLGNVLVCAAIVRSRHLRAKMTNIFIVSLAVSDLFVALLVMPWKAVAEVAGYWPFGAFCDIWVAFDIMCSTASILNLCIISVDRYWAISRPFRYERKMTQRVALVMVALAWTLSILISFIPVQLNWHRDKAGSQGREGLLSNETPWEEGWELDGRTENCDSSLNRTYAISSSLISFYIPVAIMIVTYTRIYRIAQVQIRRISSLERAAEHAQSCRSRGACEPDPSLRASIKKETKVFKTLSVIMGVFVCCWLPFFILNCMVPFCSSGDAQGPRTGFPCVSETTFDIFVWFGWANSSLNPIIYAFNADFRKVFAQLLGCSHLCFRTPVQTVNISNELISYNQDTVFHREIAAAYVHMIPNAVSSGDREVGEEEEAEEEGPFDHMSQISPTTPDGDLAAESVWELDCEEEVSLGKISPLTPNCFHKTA
Protocol: as §1, §2

ms5HT6 = target: T2, ms5HT6 (Mus musculus, UniProt Q9R1C8); test: as above
T2 construct: expressed in transfected cells; host or cells: HEK293T
T2 sequence (Q9R1C8 whole entry): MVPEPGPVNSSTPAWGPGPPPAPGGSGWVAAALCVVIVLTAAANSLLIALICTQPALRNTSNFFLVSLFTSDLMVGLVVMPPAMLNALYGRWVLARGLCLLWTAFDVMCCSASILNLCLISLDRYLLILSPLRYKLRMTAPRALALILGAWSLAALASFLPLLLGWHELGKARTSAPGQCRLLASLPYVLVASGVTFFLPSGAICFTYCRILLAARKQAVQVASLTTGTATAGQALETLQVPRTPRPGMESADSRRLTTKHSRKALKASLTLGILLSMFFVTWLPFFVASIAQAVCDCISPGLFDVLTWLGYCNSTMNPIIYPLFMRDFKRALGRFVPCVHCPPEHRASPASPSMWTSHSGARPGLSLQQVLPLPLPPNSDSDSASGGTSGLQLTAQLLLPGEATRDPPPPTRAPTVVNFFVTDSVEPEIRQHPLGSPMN
Protocol: as §1, §2

msβ2AR = target: T3, msβ2AR (Mus musculus, UniProt P18762); test: as above
T3 construct: expressed in transfected cells; host or cells: HEK293T
T3 sequence (P18762 whole entry): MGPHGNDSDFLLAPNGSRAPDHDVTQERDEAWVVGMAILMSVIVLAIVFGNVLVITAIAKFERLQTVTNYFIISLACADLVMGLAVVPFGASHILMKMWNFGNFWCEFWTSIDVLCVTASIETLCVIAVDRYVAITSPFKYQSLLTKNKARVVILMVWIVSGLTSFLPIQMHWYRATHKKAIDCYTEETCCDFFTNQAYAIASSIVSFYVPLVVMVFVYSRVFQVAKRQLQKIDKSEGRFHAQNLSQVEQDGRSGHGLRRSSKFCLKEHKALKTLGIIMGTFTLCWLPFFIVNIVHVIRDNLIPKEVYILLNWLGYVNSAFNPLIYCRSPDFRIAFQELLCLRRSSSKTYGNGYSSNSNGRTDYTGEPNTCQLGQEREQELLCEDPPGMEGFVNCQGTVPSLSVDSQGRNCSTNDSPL
Protocol: as §1, §2

msDRD1 = target: T4, msDRD1 (Mus musculus, UniProt Q61616); test: as above
T4 construct: expressed in transfected cells; host or cells: HEK293T
T4 sequence (Q61616 whole entry): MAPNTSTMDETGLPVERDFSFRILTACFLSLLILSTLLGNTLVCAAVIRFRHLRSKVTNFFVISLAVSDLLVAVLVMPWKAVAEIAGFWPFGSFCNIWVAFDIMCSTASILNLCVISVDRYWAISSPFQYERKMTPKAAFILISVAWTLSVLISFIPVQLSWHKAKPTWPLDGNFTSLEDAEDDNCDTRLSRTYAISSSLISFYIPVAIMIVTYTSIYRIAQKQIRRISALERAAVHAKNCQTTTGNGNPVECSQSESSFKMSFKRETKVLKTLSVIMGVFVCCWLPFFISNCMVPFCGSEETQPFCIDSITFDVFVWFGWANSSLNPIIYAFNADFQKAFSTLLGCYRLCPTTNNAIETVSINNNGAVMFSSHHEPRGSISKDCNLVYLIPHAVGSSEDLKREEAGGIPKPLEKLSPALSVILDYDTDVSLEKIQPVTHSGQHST
Protocol: as §1, §2

dLight1.3bL143I = dLight1.3bL143I (Homo sapiens, UniProt P21728, L143I); test: cell-based
Chain of dLight1.3bL143I (P21728 whole entry L143I, looked up): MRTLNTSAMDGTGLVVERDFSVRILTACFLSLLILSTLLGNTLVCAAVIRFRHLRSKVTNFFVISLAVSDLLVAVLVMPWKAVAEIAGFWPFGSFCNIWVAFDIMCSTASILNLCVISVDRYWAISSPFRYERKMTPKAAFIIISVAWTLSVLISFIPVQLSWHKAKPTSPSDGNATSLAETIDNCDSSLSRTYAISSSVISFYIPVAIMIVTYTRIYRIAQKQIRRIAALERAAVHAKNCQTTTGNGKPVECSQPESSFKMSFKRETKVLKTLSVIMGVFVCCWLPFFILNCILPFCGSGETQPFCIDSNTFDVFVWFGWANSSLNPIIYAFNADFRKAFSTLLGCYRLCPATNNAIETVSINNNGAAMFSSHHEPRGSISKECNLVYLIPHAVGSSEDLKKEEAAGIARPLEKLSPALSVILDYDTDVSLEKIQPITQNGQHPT
Protocol: (§3) Cells were transfected at 50–60% confluency in glass-bottomed dishes (either individually or in 24-well plates) using the Effectene transfection kit (Qiagen) according to manufacturer instructions, and imaged 24–48 h after transfection. The Flp-In™ T-REx™ 293 cells (Thermo Fisher) with a stably integrated dLight1.3b cassette[48] were cultured as follows: the cells were cultured using HEK293T cell medium with the addition of Blasticidin (15 µg/ml) and Hygromycin B (200 µg/ml). To induce the expression of dLight1.3b, doxycycline (500 ng/ml) was added to the culture medium for 24–48 hours. Before imaging, cells were rinsed with 1 mL of Hank’s Balanced Salt Solution (HBSS, Life Technologies) supplemented with Ca^2+ (2 mM) and Mg^2+ (1 mM), and imaged at room temperature with a final HBSS volume of either 100 µL for each individual 1.5 cm glass bottom dish, or 500 µL for 24-well plates. Time-lapse imaging was performed on an inverted Zeiss LSM 800 confocal microscope using a 488 nm laser and a 40X oil-based objective. During imaging, ligands were added in bolus on the cells using a micropipette to reach the final specified concentrations of ligand over the cells. For quantification, except otherwise noted, regions of interest (ROI) were selected manually using the threshold function of Fiji to isolate the cell membrane. Sensor response (∆F/F) was calculated as the following: (F(t)-F_base)/F_base with F(t) being the ROI fluorescence value at each time point (t), and F_base being the mean fluorescence of the 10-time points immediately prior to ligand addition.

AlloLite-ctr = AlloLite-ctr (Homo sapiens, UniProt P21728, L143A/R130Q)
Protocol: as §3, with “Time-lapse imaging was performed on an inverted Zeiss LSM 800 confocal microscope using a 488 nm laser and a 40X oil-based objective. During imaging, ligands were added in bolus on the cells using a micropipette to reach the final specified concentrations of ligand over the cells.” left out

msADRA1a = target: T5, msADRA1a (Mus musculus, UniProt P97718); test: NanoBit complementation assay of mini-Gq recruitment
T5 construct: expressed in transfected cells; host or cells: HEK293T
T5 sequence (P97718 whole entry): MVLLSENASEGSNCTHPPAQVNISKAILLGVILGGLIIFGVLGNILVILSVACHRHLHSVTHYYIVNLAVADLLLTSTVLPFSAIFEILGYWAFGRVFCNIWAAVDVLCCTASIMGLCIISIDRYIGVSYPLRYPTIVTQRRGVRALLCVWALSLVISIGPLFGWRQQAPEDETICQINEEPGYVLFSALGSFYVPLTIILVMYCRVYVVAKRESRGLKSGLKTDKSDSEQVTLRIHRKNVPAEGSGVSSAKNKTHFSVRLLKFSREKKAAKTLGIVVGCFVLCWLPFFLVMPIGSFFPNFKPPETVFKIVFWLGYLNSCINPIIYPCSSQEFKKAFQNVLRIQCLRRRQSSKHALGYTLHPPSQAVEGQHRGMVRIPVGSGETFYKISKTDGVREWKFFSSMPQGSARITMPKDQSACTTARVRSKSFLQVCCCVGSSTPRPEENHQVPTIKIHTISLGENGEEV
Protocol: To measure the effect of DETQ on mini-G protein recruitment by different GPCRs we used a Nanoluciferase (NanoBit)-based complementation assay[26],[27]. For this HEK293T cells were seeded in six-well plates (Techno Plastic Products) at a density of 300,000 cells per well and co-transfected with plasmids encoding either hmDRD1, msDRD1, msDRD2, msDRD5, msADRA1a, msβ2AR or ms5HT6 carrying a C-terminally fused SmBiT, in combination with the corresponding mini-G protein probe[78] (mini-Gs: for DRD1, DRD5, β2AR, 5HT6R; mini-Gq: for ADRA1a; or mini-Gi: for DRD2), which were N-terminally fused to LgBiT, in a 1:1 DNA ratio using Effectene transfection reagent (Qiagen). […] The plate was incubated at 37 °C for 30 min, before the luminescence signal was measured at 37 °C using a Tecan Spark plate reader before and after the manual addition of 25 µl of either ligand solution (final concentrations ranging from 1 nM to 100 µM), pure Fluorobrite-DMEM or 25 µl of a DETQ solution (1 µM final concentration).
For in vitro luminescence assays, ligand traces were divided by buffer traces, the area under the curve for each trace was calculated using GraphPad Prism, values were normalized and fitted as dose response curve. […] The statistical significance was determined using Welch’s ANOVA followed by Dunnett’s multiple comparison test (comparison of ligand or vehicle to ligand). […]

[1] = DA 100 µM, wide range of DETQ concentrations

Chain of hmDRD1 (P21728 whole entry, the tested form may be a part): as the sequence (P21728 whole entry L143I, looked up) above, with I143L counted along it

## C[C@H]1c2cccc(C(C)(C)O)c2C[C@H](CO)N1C(=O)Cc1c(Cl)cccc1Cl [DETQ, 2-(2,6-dichlorophenyl)-1-((1S,3R)-3-(hydroxymethyl)-5-(2-hydroxypropan-2-yl)-1-methyl-3,4-dihydroisoquinolin-2(1H)-yl)ethan-1-one]
hmDRD1; DETQ 100 nM
  allosteric modulator mode: potentiation of mini-Gs recruitment during DA titration: strong and significant potentiation
hmDRD1; DETQ 1 µM alone
  agonist mode: direct agonist effect: no direct agonist effect
msDRD5; DETQ 1 µM alone
  agonist mode: direct agonist effect: no direct agonist effect
msDRD5; DETQ 1 µM, DA
  allosteric modulator mode: effect on agonist dose-response: No allosteric effect
ms5HT6; DETQ 1 µM alone
  agonist mode: direct agonist effect: no direct agonist effect
ms5HT6; DETQ 1 µM, 5HT
  allosteric modulator mode: effect on agonist dose-response: No allosteric effect
msβ2AR; DETQ 1 µM alone
  agonist mode: direct agonist effect: no direct agonist effect
msβ2AR; DETQ 1 µM, NE
  allosteric modulator mode: effect on agonist dose-response: No allosteric effect
msDRD1; DETQ 100 nM
  allosteric modulator mode: potentiation of mini-Gs recruitment during DA titration: potentiation of mini-Gs recruitment only in the case of the hmDRD1
msDRD1; DETQ 1 µM alone
  agonist mode: direct agonist effect: no direct agonist effect
dLight1.3bL143I
  Kb: 17.7 nM
  sensor response to DETQ in the absence of DA: could not trigger a response
  α factor: 10.8
dLight1.3bL143I; [1]
  maximal fluorescent response to a saturating concentration of DA: not affected
dLight1.3bL143I; human, hek293 cells
  increase in DETQ potency versus dLight1.3b: 3 fold
AlloLite-ctr
  α factor: 1.6
AlloLite-ctr; [1]
  maximal fluorescent response to a saturating concentration of DA: not affected
msADRA1a; DETQ 1 µM alone
  agonist mode: direct agonist effect: no direct agonist effect
msADRA1a; DETQ 1 µM, NE
  allosteric modulator mode: effect on agonist dose-response: No allosteric effect
